Settings: Liquid

CCOC(=O)CC [ethyl propanoate]
mass density [kg/m3]
Settings	298.15 K	303.15 K	308.15 K	313.15 K	318.15 K	323.15 K	328.15 K	333.15 K
100 kPa	884.3	878.5	872.7	866.8	860.9	854.9	849.2	843.1
1000 kPa	884.8	879	873.2	867.4	861.5	856	850.2	844.2
2000 kPa	885.7	880	874.2	868.4	862.6	857.1	851.3	845.4
3000 kPa	886.6	880.9	875.2	869.4	863.7	858.1	852.5	846.6
3340 kPa	886.9	881.2	875.5	869.8	864.1	858.4	852.9	847
5000 kPa	888.7	883	877.4	871.7	866.1	860.3	854.7	849
10000 kPa	892.9	887.4	882	876.5	871	865.4	860	854.6
15000 kPa	896.9	891.6	886.3	880.9	875.6	870.2	865	859.7
20000 kPa	900.7	895.6	890.4	885.1	880	874.7	869.6	864.5
25000 kPa	904.4	899.4	894.3	889.3	884.1	879.1	874	869.2
30000 kPa	908.9	904	899.2	894.4	889.1	884.3	879.4	874.8
35000 kPa	913.6	908.9	904.2	899.5	894.3	889.7	884.9	–
